Measurements: ChEMBL document CHEMBL3885861, “Open TG-GATES”

Organism: Rattus norvegicus
Test: Open TG-GATES - Regimen: Single
Type: toxicity, organism-based, Sprague-Dawley
Set-up: regimen Single, gender Male, age 6 weeks
Settings: in vivo, iv, route intravenous injection; for KIDNEY_L / KIDNEY_R / KIDNEY_TOTAL: tissue Kidney; for LIVER: tissue Liver
[1] = 10 mg/kg, 3 h, tissue Blood, dose level Low
[2] = 10 mg/kg, 3 h, tissue Plasma, dose level Low
[3] = 10 mg/kg, 6 h, tissue Blood, dose level Low
[4] = 10 mg/kg, 6 h, tissue Plasma, dose level Low
[5] = 10 mg/kg, 9 h, tissue Blood, dose level Low
[6] = 10 mg/kg, 9 h, tissue Plasma, dose level Low
[7] = 10 mg/kg, 24 h, tissue Blood, dose level Low
[8] = 10 mg/kg, 24 h, tissue Plasma, dose level Low

Sequence: CARBOPLATIN
- Bas [1]: 0%
- Eos [1]: 1%
- Fbg [1]: 269.2 mg/dL
- Hb [1]: 12.9 g/dL
- Lym [1]: 80.4%
- MCH [1]: 21.1 pg
- MCHC [1]: 32%
- MCV [1]: 66 fL
- Mono [1]: 2.4%
- PT [1]: 15.4 s
- Plat [1]: 126.7 x10_4/uL
- RBC [1]: 612.6 x10_4/ul
- Ret [1]: 6.2%
- WBC [1]: 92.7 x10_2/uL
- KIDNEY_L (10 mg/kg, 3 h, dose level Low): 1 g
- KIDNEY_R (10 mg/kg, 3 h, dose level Low): 0.9 g
- KIDNEY_TOTAL (10 mg/kg, 3 h, dose level Low): 1.9 g
- LIVER (10 mg/kg, 3 h, dose level Low): 9.7 g
- ALP [2]: 1526 IU/L
- ALT [2]: 43.6 IU/L
- AST [2]: 85.4 IU/L
- CRE [2]: 0.2 mg/dL
- DBIL [2]: 0.002 mg/dL
- GLC [2]: 185 mg/dL
- IP [2]: 7.9 mg/dL
- K [2]: 3.9 meq/L
- LDH [2]: 228.2 IU/L
- PL [2]: 124.8 mg/dL
- RALB [2]: 2.9 g/dL
- TBIL [2]: 0.016 mg/dL
- TC [2]: 68.4 mg/dL
- TG [2]: 55.2 mg/dL
- TP [2]: 5.2 g/dL
- gamma-GTP [2]: 1.2 IU/L
- TERMINAL_BW (10 mg/kg, 6 h, dose level Low): 204.9 g
- APTT [3]: 24.2 s
- Bas [3]: 0%
- Eos [3]: 1%
- Fbg [3]: 286.8 mg/dL
- Ht [3]: 41.2%
- Lym [3]: 77.6%
- MCH [3]: 20.6 pg
- MCHC [3]: 32.2%
- MCV [3]: 64 fL
- Mono [3]: 2.8%
- Neu [3]: 17.8%
- PT [3]: 15.9 s
- Plat [3]: 131 x10_4/uL
- RBC [3]: 643.6 x10_4/ul
- Ret [3]: 6.3%
- WBC [3]: 115.8 x10_2/uL
- KIDNEY_L (10 mg/kg, 6 h, dose level Low): 1 g
- KIDNEY_R (10 mg/kg, 6 h, dose level Low): 1 g
- KIDNEY_TOTAL (10 mg/kg, 6 h, dose level Low): 2 g
- LIVER (10 mg/kg, 6 h, dose level Low): 9.1 g
- ALP [4]: 1291.4 IU/L
- ALT [4]: 43.4 IU/L
- BUN [4]: 10 mg/dL
- CRE [4]: 0.2 mg/dL
- DBIL [4]: 0 mg/dL
- GLC [4]: 180.6 mg/dL
- IP [4]: 9.1 mg/dL
- K [4]: 4.3 meq/L
- LDH [4]: 174.2 IU/L
- PL [4]: 134.6 mg/dL
- RALB [4]: 3 g/dL
- TBIL [4]: 0.016 mg/dL
- TC [4]: 72.8 mg/dL
- TG [4]: 76.2 mg/dL
- TP [4]: 5.5 g/dL
- gamma-GTP [4]: 1.6 IU/L
- TERMINAL_BW (10 mg/kg, 9 h, dose level Low): 197.5 g
- APTT [5]: 25.3 s
- Bas [5]: 0%
- Eos [5]: 1%
- Fbg [5]: 294.6 mg/dL
- Ht [5]: 40.2%
- Lym [5]: 73%
- MCHC [5]: 32.6%
- Mono [5]: 2.4%
- Neu [5]: 23.4%
- PT [5]: 15.7 s
- Plat [5]: 131.4 x10_4/uL
- RBC [5]: 644.2 x10_4/ul
- Ret [5]: 5.7%
- WBC [5]: 86.3 x10_2/uL
- KIDNEY_L (10 mg/kg, 9 h, dose level Low): 0.9 g
- KIDNEY_R (10 mg/kg, 9 h, dose level Low): 0.9 g
- KIDNEY_TOTAL (10 mg/kg, 9 h, dose level Low): 1.8 g
- LIVER (10 mg/kg, 9 h, dose level Low): 8 g
- ALP [6]: 1344 IU/L
- ALT [6]: 37.4 IU/L
- AST [6]: 77 IU/L
- BUN [6]: 11.2 mg/dL
- CRE [6]: 0.2 mg/dL
- DBIL [6]: 0 mg/dL
- GLC [6]: 177.8 mg/dL
- IP [6]: 9.3 mg/dL
- K [6]: 4.4 meq/L
- LDH [6]: 180.2 IU/L
- Na [6]: 140 meq/L
- PL [6]: 121 mg/dL
- RALB [6]: 2.9 g/dL
- TBIL [6]: 0.012 mg/dL
- TC [6]: 71.8 mg/dL
- TG [6]: 44.6 mg/dL
- TP [6]: 5.3 g/dL
- gamma-GTP [6]: 1.4 IU/L
- TERMINAL_BW (10 mg/kg, 24 h, dose level Low): 204.3 g
- APTT [7]: 23.3 s
- Bas [7]: 0%
- Eos [7]: 0.6%
- Fbg [7]: 298.2 mg/dL
- Ht [7]: 40.6%
- Lym [7]: 80.2%
- MCHC [7]: 32.1%
- MCV [7]: 63.8 fL
- Mono [7]: 2.8%
- PT [7]: 16.6 s
- Plat [7]: 122.3 x10_4/uL
- RBC [7]: 637.8 x10_4/ul
- Ret [7]: 4.7%
- WBC [7]: 78.9 x10_2/uL
- KIDNEY_L (10 mg/kg, 24 h, dose level Low): 0.9 g
- KIDNEY_R (10 mg/kg, 24 h, dose level Low): 1 g
- KIDNEY_TOTAL (10 mg/kg, 24 h, dose level Low): 1.9 g
- LIVER (10 mg/kg, 24 h, dose level Low): 9 g
- ALP [8]: 1748.8 IU/L
- AST [8]: 69.8 IU/L
- BUN [8]: 15.6 mg/dL
- CRE [8]: 0.2 mg/dL
- DBIL [8]: 0 mg/dL
- GLC [8]: 180.8 mg/dL
- IP [8]: 7.2 mg/dL
- K [8]: 4.5 meq/L
- LDH [8]: 208.6 IU/L
- PL [8]: 140.6 mg/dL
- RALB [8]: 3.1 g/dL
- TBIL [8]: 0.006 mg/dL
- TC [8]: 74.2 mg/dL
- TG [8]: 75.6 mg/dL
- TP [8]: 5.5 g/dL
- gamma-GTP [8]: 1.6 IU/L
- TERMINAL_BW (30 mg/kg, 3 h, dose level Middle): 205.5 g
